pEC50: −log10 of the molar value. Calls of active or inactive are those of the source. The rule behind the calls is not given here.
How the values were obtained:
[1] = Cmax in C57BL/6J mouse at 10 mg/kg, po administrated via oral gavage by LC-MS/MS analysis; type: ADME, organism-based; conditions: in vivo
[2] = Half-life in male C57BL/6J mouse plasma at 10 mg/kg, po administrated via oral gavage by LC-MS/MS analysis; type: ADME, organism-based; conditions: in vivo
[3] = (§1) Induction of mitochondrial uncoupling activity in rat L6 myoblast cells assessed as increase in oxygen consumption rate by measuring ratio of integrated area under OCR dose curve above baseline relative to BAM15 up to 200 uM over 90 mins; type: functional
[4] = Induction of mitochondrial uncoupling activity in rat L6 myoblast cells assessed as increase in oxygen consumption rate measured over 90 mins; type: functional, cell-based
L6 = assay: as §1; type: functional

Compound	Cmax ([1]; C57BL/6J) [nM]	t1/2 [2] [min]	pEC50 [4]	Cmax ([1]; po, 10 mg/kg) [nM]	Activity [3] [%]	Activity (L6)
O=C(ONc1nc2nonc2nc1Nc1ccccc1F)c1ccc(OC(F)(F)F)cc1	2	15	6.47		118	
O=C(ONc1nc2nonc2nc1Nc1ccccc1F)c1ccccc1F			< 4.00		45	
O=C(NNc1nc2nonc2nc1Nc1ccccc1F)c1cccc(F)c1					8	
ONc1nc2nonc2nc1Nc1ccc(-c2ccc(F)cc2)cc1						inactive
O=C(ONc1nc2nonc2nc1Nc1ccccc1F)c1cccc(C(F)(F)F)c1			5.80		71	
O=C(ONc1nc2nonc2nc1Nc1ccccc1F)c1cccc(F)c1			6.15		102	
CC(C)(C)OC(=O)NNc1nc2nonc2nc1Nc1cccc(Cl)c1			5.80		78	
NNc1nc2nonc2nc1Nc1ccccc1F						inactive
O=C(ONc1nc2nonc2nc1Nc1ccccc1F)c1ccccc1C(F)(F)F			5.18		65	
O=C(ONc1nc2nonc2nc1Nc1ccccc1F)c1cc(C(F)(F)F)ccc1F			5.85		75	
O=C(ONc1nc2nonc2nc1Nc1ccccc1F)c1ccc(F)cc1F			5.87		97	
Cc1ccc(Nc2nc3nonc3nc2NO)cc1						inactive
ONc1nc2nonc2nc1Nc1cc(F)cc(F)c1						inactive

Now from value to molecule, other results behind:

Cmax ([1]; C57BL/6J) [nM]	t1/2 [2] [min]	pEC50 [4]	Cmax ([1]; po, 10 mg/kg) [nM]	Compound	Activity [3] [%]	Activity (L6)
		< 4.00		CCCC(=O)NNc1nc2nonc2nc1Nc1ccccc1F	31	
		4.06		ONc1nc2nonc2nc1Nc1ccccc1F	41	
		5.28		CC(C)(C)C(=O)ONc1nc2nonc2nc1Nc1ccccc1F	86	
	35.4	5.96	6600	CC(C)COC(=O)NNc1nc2nonc2nc1Nc1ccccc1F	88	
		5.08		CN(Nc1nc2nonc2nc1Nc1ccccc1F)C(=O)OC(C)(C)C	65	
		4.85		CCCCC(=O)NNc1nc2nonc2nc1Nc1ccccc1F	71	
	108	5.34	170	CC(C)(C)OC(=O)NNc1nc2nonc2nc1Nc1ccccc1Cl	87	
		5.96		CC(C)(C)OC(=O)NNc1nc2nonc2nc1Nc1cccc(F)c1	32	
		4.11		CNNc1nc2nonc2nc1Nc1ccccc1F	15	
		5.37		O=C(NNc1nc2nonc2nc1Nc1ccccc1F)c1ccc(OC(F)(F)F)cc1	6	
		4.79		CCOC(=O)NNc1nc2nonc2nc1Nc1ccccc1F	65	
		5.96		O=C(NNc1nc2nonc2nc1Nc1ccccc1F)NC1CCCC1	23	
		5.92		CCCCOC(=O)NNc1nc2nonc2nc1Nc1ccccc1F	54	
	27	5.34	220	CC(C)(C)OC(=O)NNc1nc2nonc2nc1Nc1ccccc1F	103	
		5.83		Cc1cc(C)cc(C(=O)ONc2nc3nonc3nc2Nc2ccccc2F)c1	9	

— ChEMBL document CHEMBL6078727 (Bioorg Med Chem, 2025)
